Measured values as given in article PMC6835763, “Influence of Short Cationic Lipopeptides with Fatty Acids of Different Chain Lengths on Bacterial Biofilms Formed on Polystyrene and Hydrogel Surfaces” (Pharmaceutics, 2019).
Where a SMILES comes first, the peptide text is derived from it. Bridges are numbered along the chain shown (N, C = ends). Roman numbers before positions name the chains, in order. The star is where a group is joined. Palmitoyl = CCCCCCCCCCCCCCCC(=O)*; Myristoyl = CCCCCCCCCCCCCC(=O)*; Lauroyl = CCCCCCCCCCCC(=O)*

How the values were obtained:
[1] = RP-HPLC retention to evaluate the hydrophobicity of lipopeptides; type: physicochemical; details: chromatographic, Luna C18(2) 3.0 × 100 mm, 5.0 µm, linear 20–80% acetonitrile in water over 10 min, 0.1% formic acid, 0.5 mL/min, UV 214 nm, used to evaluate hydrophobicity
Experimental: The crude peptide was lyophilized and subsequently purified by RP-HPLC. The purifications were carried out on a Phenomenex Gemini-NX C18 column (21.20 × 100 mm, 5.0 µm particle size, and 110 Å pore size). Acetonitrile and water, both containing 0.1% of TFA, were used as the mobile phase. UV detection at 214 nm was used. The crude peptides were eluted with a linear 20–80% acetonitrile gradient in deionized water over 60 min at a flow rate of 10.0 mL/min. The purity and identity of the peptides were confirmed with LC-MS analysis. A Waters Alliance e2695 RP-HPLC system (Waters, Milford, MA, USA) with Waters 2998 PDA (Waters, Milford, MA, USA) and Acquity QDA detectors (Empower®3 software, Database Version 7.21.00.00) was used. All analyses were carried out on a Phenomenex, Luna C18(2) column (3.0 × 100 mm, 5.0 µm particle size, 100 Å pore size). The samples were analyzed with a linear 20–80% acetonitrile gradient in deionized water over 10 min at a flow rate of 0.5 mL/min with UV detection at 214 nm. Both eluents contained 0.1% (v/v) of formic acid. The pure fractions (>95%, by HPLC analysis) were collected and lyophilized. The retention time and percentage of ACN (%) at which each peptide was eluted are included in Table 1 to evaluate the hydrophobicity of lipopeptides. The identity of all compounds was confirmed using mass spectrometry (Waters Alliance e2695 system with Acquity QDA detector, Waters, Milford, MA, USA) with electrospray ionization in positive ion mode (ESI-MS). In this mode, a proton is attached to basic moieties (amine groups, guanidine groups). The theoretical mass of the peptide was calculated and then expected ions (m/z—mass to charge ratio) were compared to measured m/z. The results are presented in Table 1, and mass spectra are presented in the Supplementary Materials.

gram-positive strains = test: MIC, broth microdilution, range over strains; type: cell-based; details: range over the gram-positive strains, liquid culture
Experimental: The MICs of synthetic lipopeptides and conventional antimicrobials were determined using the broth microdilution method according to the Clinical and Laboratory Standard Institute (CLSI) guidelines on reference strains. […] The PS were incubated under aerobic conditions at 37 °C for 18 h. The MIC (μg/mL) was assumed as the lowest concentration of the compound that inhibited the growth of the microorganisms. All experiments were performed in triplicate and included the growth and sterility controls.

| Molecule | % ACN at which the peptide was eluted [1] | tR' (adjusted retention time) [1] | concentrations inhibiting growth of gram-positive strains (MIC range) (gram-positive strains) |
| --- | --- | --- | --- |
| CCCCCCCCCCCC(=O)N[C@@H](CCCCN)C(=O)N[C@@H](CCCCN)C(=O)N[C@@H](CSSC[C@H](NC(=O)[C@H](CCCCN)NC(=O)[C@H](CCCCN)NC(=O)CCCCCCCCCCC)C(N)=O)C(N)=O [Lipopeptide 1, C12-KKC-NH2] (I: Lauroyl-Lys-Lys-Cys-NH2 / II: Lauroyl-Lys-Lys-Cys-NH2; disulfide I:3-II:3) | 38.6% | 3.10 min | 2 to 8 µg/mL |
| CCCCCCCCCCCCCC(=O)N[C@@H](CCCCN)C(=O)N[C@@H](CCCCN)C(=O)N[C@@H](CSSC[C@H](NC(=O)[C@H](CCCCN)NC(=O)[C@H](CCCCN)NC(=O)CCCCCCCCCCCCC)C(N)=O)C(N)=O [Lipopeptide 3, C14-KKC-NH2] (I: Myristoyl-Lys-Lys-Cys-NH2 / II: Myristoyl-Lys-Lys-Cys-NH2; disulfide I:3-II:3) | 43.3% | 3.88 min | – |
| CCCCCCCCCCCCCC(=O)N[C@@H](CCCCN)C(=O)N[C@@H](CCCNC(=N)N)C(N)=O [Lipopeptide 4, C14-KR-NH2] (Myristoyl-Lys-Arg-NH2) | 39.7% | 3.29 min | – |
| CCCCCCCCCCCCCCCC(=O)N[C@@H](CCCCN)C(=O)NCC(=O)N[C@@H](CCCCN)C(N)=O [Lipopeptide 5, C16-KGK-NH2] (Palmitoyl-Lys-Gly-Lys-NH2) | 43.7% | 3.95 min | – |
| CCCCCCCCCCCCCCCC(=O)N[C@@H](CCCCN)C(=O)N[C@@H](CCCCN)C(=O)N[C@@H](CCCCN)C(N)=O [Lipopeptide 7, C16-KKK-NH2] | 37.9% | 2.98 min | – |
| CCCCCCCCCCCCCCCC(=O)N[C@@H](CCCCN)C(=O)N[C@@H](CCCNC(=N)N)C(N)=O [Lipopeptide 8, C16-KR-NH2] (Palmitoyl-Lys-Arg-NH2) | 44.3% | 4.06 min | – |
| (C10)2-KKKK-NH2 [Lipopeptide 9] | 39.6% | 3.27 min | – |
